Data set [1] has as its system TK.6 lymphoblasts. As to the kind of experiment: TK.6 micronucleus assay. The class given is cell-based. The protocol:
(§1) The safety/toxicology profiles of a compound or salt of the present disclosure was evaluated via a series of in vitro genotoxicity assays, including the SOS-chromotest to determine bacterial genotoxicity, and the TK.6 micronucleus assay to determine chromosomal damage and forward mutations. Standard reactive oxygen species (ROS) and caspase 3/7 assay were conducted to determine general cellular toxicity. Moreover, a series of sensitization tests were conducted to predict any potential skin sensitivity. These include the direct peptide reactivity assay to evaluate haptenization, the KeratinoSens reporter assay to determine potential sensitivity via the activation of a cytoprotective pathway, and an immunological assay using human immature monocyte-derived dendritic cells to evaluate any potential immunogenicity.
TK.6 lymphoblasts are a well-studied cell line commonly used for gene mutation analyses. They are heterozygous for the thymidine kinase gene (TK) and enable the detection of forward mutations and chromosomal damage, which manifests as micronuclei and are detectable via flow cytometry.
TK.6 cells were dosed with the exemplary compounds or a vehicle control (0.1% v/v DMSO) and cultured with or without S9 metabolic activation for 24 hr. […] Methyl methanesulfonate, a known genotoxic, alkylating agent was used as a positive control for micronuclei detection.
The micronucleus assay was also performed to determine if the compounds are genotoxic by evaluating the presence of micronuclei. […] I-17 elicited genotoxicity at >3.125 μg/mL.

The test system of data set [2] is human hair follicle dermal papilla cells (hFDPC). As to the kind of experiment: Human follicle dermal papilla cell (hFDPC) proliferation, cell viability assay. To be noted: hFDPCs supplemented with BIO, BMP-2 and FGFβ. The class given is cell-based. The protocol:
The ability of a compound or salt of the present disclosure to increase proliferation of human hair follicle dermal papilla cells (hFDPC) was tested using a cell viability assay, such as the Promega CellTiter-Glo® Luminescent Cell Viability Assay, MTT cell proliferation assay (ATCC® 30-1010K) or cell counting. […] In Table 8, A represents less than 20% of increased proliferation of hFDPCs, B represents 20-40%, and C represents larger than 40% of increased proliferation of hFDPCs. For this assay, hFDPCs were cultured on tissue culture-treated plastic and supplemented with 6-bromoindirubin-39-Oxime (BIO), recombinant bone morphogenetic protein-2 (BMP-2), and basic fibroblast growth factor (FGFβ), whose combination was previously found to preserve in situ dermal papilla gene signatures.

Data set [3] concerns HepG2 cells. As to the kind of experiment: Caspase 3/7 activity in HepG2 cells. The class given is cell-based. Conditions: HepG2, >2-log concentration range. The protocol:
Cells were treated with either the exemplary compounds or vehicle control containing correspondingly % v/v-matched amounts of DMSO spanning a >2-log concentration range. Data represents mean±s.d. and representative of at least 2 experimental replicates.
HepG2 cells are an immortalized liver cell line commonly used to study apoptosis induced by small molecules. Cells were treated with either the exemplary compounds or vehicle control containing correspondingly % v/v-matched amounts of DMSO spanning a >2-log concentration range. Data represents mean±s.d. and representative of at least 2 experimental replicates.

Data set [4] deals with follicle dermal papilla cells. In words: Reactive oxygen species (ROS) activity in follicle dermal papilla cells. The class given is cell-based. Conditions: 5 μg/mL, 24 hr, relative to vehicle control 0.1% v/v DMSO. The method, then: Normalized reactive oxygen species (ROS) activity in follicle dermal papilla cells were analyzed after treatment with 5 μg/mL exemplary compounds relative to vehicle control (0.1% v/v DMSO) after 24 hr. The increase in ROS levels is harmful on cell mhemeostasis, structures, and functions and results in oxidative stress.

Data set [5] deals with bacteria. In words: SOS chromotest (β-galactosidase activity). Conditions: varying concentrations; 4-NQ as known genotoxin. The class given is cell-based. The method, then:
The SOS chromotest is a well-established bacteria-based test for genotoxicity.
as §1

Data set [6] concerns Nrf2-ARE pathway. As to the kind of experiment: KeratinoSens Nrf2-ARE luciferase reporter assay. The class given is cell-based. Conditions: cinnamic aldehyde as known sensitizing compound. The protocol: The Nrf2-ARE pathway is a master regulator of cytoprotective responses to oxidative stress, and is an early indicator of skin sensitization. Nrf2 (nuclear factor erythroid 2-related factor) is a transcription factor that binds to antioxidant responsive elements (ARE). By fusing ARE to the light-producing luciferase gene, a KeratinoSens Nrf2-ARE reporter assay was performed whereby luciferase signal is directly correlated to Nrf2-ARE pathway activation.
Normalized ARE-luciferase activity was measured using a known sensitizing compound (cinnamic aldehyde) and exemplary compounds.
(In general: A reporter such as luciferase makes a cellular process visible.)

The subject of data set [7] is female subjects. In words: Clinical consumer perception study. In kind it is in vivo, human. Conditions: 0.02% v/v water-based formula every 2 days, 6 weeks, 32 subjects completed. The method, then:
Photographs were taken after 6 weeks. Subjects were female and ranged in age from 27-65 years. Subjects used a simple, water-based formula containing an exemplary compound (at 0.02% v/v) every 2 days in the morning or night on dry or towel-dried hair. Approximately 2 mL was applied directly to the hairline. No randomization was required for the study and subjects were blinded to the name of the test material.
The clinical test was performed by Eurofins|CRL, Inc. The test followed established, standardized procedures for clinical testing designed to ensure the well-being of clinical study subjects and the generation of reliable study data. Subjects were female and ranged in age from 27-65 years. Subjects used a simple, water-based formula containing a exemplary compound, VII-3 (at 0.02% v/v) every 2 days in the morning or night on dry or towel-dried hair. Approximately 2 mL was applied directly to the hairline. No randomization was required for the study and subjects were blinded to the name of the test material.
Photographs of subjects' hair were taken 6 weeks after the treatment with the representative compounds (FIG. 6). Subjects were female and ranged in age from 27-65 years. Subjects used a simple, water-based formula containing an exemplary compound VII-3 (at 0.02% v/v) every 2 days in the morning or night on dry or towel-dried hair. […]

Data set [8] relates to Human follicle papilla cells. In words: Functional stability across pH and temperature (follicle papilla cell proliferation). In kind it is cell-based. To be noted: pre-treated 7 days in pH-adjusted water at varying temperatures; cells dosed 5 μg/mL, 48 hr. The method, then: FIGS. 7A and 7B show normalized proliferation follicle papilla cell proliferation after 48 hr following treatment with the exemplary compound (VII-3) pre-treated across a range of pH conditions (FIG. 7A) and temperature conditions (FIG. 7B). Data represents mean±s.d. and representative of n=2 donors.
An exemplary compound (VII-3) was prepared in various solvents (DMSO; dimethyl sulfoxide, DMI; dimethyl isosorbide, or a 1:1 mixture of dimethyl isosorbide and ethanol), the diluted in pH-adjusted water and left at varying temperatures for 7 days. Human follicle papilla cells were dosed at 5 μg/mL with the exemplary compound and further supplemented with 6-bromoindirubin-39-Oxime (BIO), recombinant bone morphogenetic protein-2 (BMP-2), and basic fibroblast growth factor (FGFβ), whose combination was previously found to preserve in vivo dermal papilla gene signatures. Normalized proliferation follicle papilla cell proliferation was analyzed after 48 hr following the treatment with the exemplary compound pre-treated across a range of pH conditions (FIG. 7A) and temperature conditions (FIG. 7B). Data represents mean±s.d. and representative of n=2 donors.

We go through 8 molecules from US12527794B2, “Compositions, formulations, and methods for hair treatment” (Oddity Labs, LLC, priority 2021, dated 2026).

On to `C=CCc1cc(/C=C2\C(=O)NC(=S)N(c3ccc(OC)cc3)C2=O)cc(OC)c1O` [Compound I-17, 4,6(1H,5H)-Pyrimidinedione, dihydro-5-[[4-hydroxy-3-methoxy-5-(2-propen-1-yl)phenyl]methylene]-1-(4-methoxyphenyl)-2-thioxo-], for which, in data set [1] (24 hr), the “concentration eliciting genotoxicity in TK.6 micronuclei assay” value was greater than 3.125 µg/mL. Also, the “Percent Increase Proliferation of hFDPCs (%)” value in data set [2] is reported as “C (C represents larger than 40% of increased proliferation of hFDPCs)”. Further, the “normalized caspase 3/7 activity” value in data set [3] is given as “significant caspase-3/7 activation at the highest concentration”.
`C=CCc1cc(/C=C2\C(=O)NC(=S)N(c3ccccc3OC)C2=O)cc(OCC)c1O` [Compound I-18, 4,6(1H,5H)-Pyrimidinedione, 5-[[3-ethoxy-4-hydroxy-5-(2-propen-1-yl)phenyl]methylene]dihydro-1-(2-methoxyphenyl)-2-thioxo-]: the “Percent Increase Proliferation of hFDPCs (%)” value in data set [2] is listed as “B (B represents 20-40%)”. For the same molecule, in data set [4], the “normalized ROS level” value is “higher than other compounds”.
Turning to `CCC(=O)N1CCN(c2nnc(-c3ccc(C)cc3)c3ccccc23)CC1` [II-4, 1-Propanone, 1-[4-[4-(4-methylphenyl)-1-phthalazinyl]-1-piperazinyl]-], in data set [1], the “micronuclei formation / genotoxic effect in TK.6 cells” value was “do not promote any micronuclei formation”. The “genotoxic effects, normalized β-galactosidase activity” value in data set [5] is reported as “did not exhibit any genotoxic effects”. In data set [3], the “normalized caspase 3/7 activity” value is “did not exhibit any caspase activation”.
With `COC(=O)c1c(S(C)(=O)=O)[nH]c(-c2ccccc2)nc1=O` [VII-1], the “micronuclei formation / genotoxic effect in TK.6 cells” value in data set [1] was “do not promote any micronuclei formation”. In data set [5], the “genotoxic effects, normalized β-galactosidase activity” value is recorded as “did not exhibit any genotoxic effects”. For the same molecule, in data set [6], the “sensitizing potential, normalized ARE-luciferase activity” value was “exhibited sensitizing potential”. Further, in data set [3], the “normalized caspase 3/7 activity” value is “did not exhibit any caspase activation”.
As to `CSc1nc(-c2ccco2)nn1S(C)(=O)=O` [VII-3, 1H-1,2,4-Triazole, 3-(2-furanyl)-1-(methylsulfonyl)-5-(methylthio)-], in data set [5], the “genotoxic effects, normalized β-galactosidase activity” value is “did not exhibit any genotoxic effects”. In addition, in data set [7], the Adverse effects was 0/32 (0%). For the same molecule, the “normalized caspase 3/7 activity” value in data set [3] is listed as “did not exhibit any caspase activation”. Further, the “functional stability (normalized follicle papilla cell proliferation after pre-treatment)” value in data set [8] is “functionally stable across physiologically-relevant pH and temperature ranges”.
Regarding `O=C1CNCc2[nH]c3ccccc3c2N1c1ccccc1` [VII-10, 1,4-Diazepino[6,5-b] indol-2(1H)-one, 3,4,5,6-tetrahydro-1-phenyl-], in data set [2], the “Percent Increase Proliferation of hFDPCs (%)” value is “B (B represents 20-40%)”.
Take `COc1ccc(CCCc2nc3ccccc3[nH]2)cc1` [VII-14, 1H-Benzimidazole, 2-[3-(4-methoxyphenyl)propyl]-]: in data set [1], the “micronuclei formation / genotoxic effect in TK.6 cells” value is “do not promote any micronuclei formation”. Further, in data set [3], the “normalized caspase 3/7 activity” value is “did not exhibit any caspase activation”.
Consider `COc1ccc(CC(=O)Nc2sc3c(c2C(=O)Nc2cccc([N+](=O)[O-])c2)CCC(C)C3)cc1` (centres unmarked) [VII-22, Benzo[b]thiophene-3-carboxamide, 4,5,6,7-tetrahydro-2-[[2-(4-methoxyphenyl)acetyl]amino]-6-methyl-N-(3-nitrophenyl)-], for which the “Percent Increase Proliferation of hFDPCs (%)” value in data set [2] is “A (A represents less than 20% of increased proliferation of hFDPCs)”.
